From patent publication US20160244845A1, “METHOD FOR DETERMINING THE PROGNOSIS OF PANCREATIC CANCER” (AB SCIENCE, priority 2013, published 2016)

Experiments:
[1] = system: pancreatic cancer patients; conditions: cited from earlier work
[2] = system: pancreatic cancer patients; experiment: Clinical phase III study AB07012 (ancillary pharmacogenomic study): overall survival of pancreatic cancer patients; conditions: ACOX1 subgroup, DCt cut-off <=3.05; 95% CI [0.10; 0.51]; p-value 0.001

## C#Cc1cccc(Nc2ncnc3cc(OCCOC)c(OCCOC)cc23)c1 [Erlotinib]
[1]; in combination treatment with gemcitabine
  overall survival (OS) compared to gemcitabine treatment alone: therapeutic benefit

## Cc1ccc(NC(=O)c2ccc(CN3CCN(C)CC3)cc2)cc1Nc1nc(-c2cccnc2)cs1 [Masitinib]
[2]
  hazard ratio (masitinib treatment effect with respect to placebo): 0.23

## Folfirinox
[1]; pancreatic cancer patients
  survival rates after 2 years compared to gemcitabine alone: no benefit
[1]; pancreatic cancer patients, folfirinox: recent phase III study
  median overall survival: 11.1 months
